Experimental data from patent US12606528B2, “Methods and materials for inhibiting NF-kB activity” (University of Pittsburgh - Of the Commonwealth System of …, priority 2019, dated 2026).
Read-outs that look alike come from different tables or passages of the source.

Legend:
TNF release = test: TNF assay: TNF release from LPS-stimulated human PBMCs (TNF ELISA); assay type: cell-based; conditions: PBMC, read-out: IC50 (TNF assay)
In short: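 TNF ELISA on supernatants read-out; cells were 10k human PBMCs/well given LPS at 10 ng/mL for 18 h after a 2 h compound pre-incubation across a concentration series, with IC50 derived for suppression of TNF secretion.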

NF-κB = NF-κB assay: THP1-NF-κB-LUC cells, LPS-stimulated secreted luciferase; assay type: cell-based; conditions: THP1-NF-κB-LUC cells, read-out: IC50 (NF-κB assay)
In short: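 THP1-NF-κB-LUC cells (25k/well) were pretreated with compounds for 2 h, then stimulated with LPS (10 ng/mL) for 18 h. Secreted luciferase was measured and normalized to vehicle, and IC50 was fitted from the concentration series.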

[1] = LPS-stimulated human PBMCs, TNF ELISA
[2] = human PBMCs, compounds 2 hours before LPS (10 ng/ml) for 18 hours, supernatant TNF ELISA
[3] = compounds 2 hours before LPS (10 ng/mL) for 18 hours, secreted luciferase

SMILES	IC50 (TNF release; [1]) [µM]	IC50 (NF-κB; LPS-stimulated) [µM]	IC50 (TNF release; [2]) [µM]	IC50 (NF-κB; [3]) [µM]
CC(C)CS(=O)(=O)c1sc(-c2ccccc2F)nc1S(=O)(=O)c1ccc(Cl)cc1 [BC19631]	> 10	1 to 10		
O=S(=O)(c1ccc(Cl)cc1)c1nc(-c2ccc(Cl)cc2)sc1S(=O)(=O)C1CCCCC1 [BC19623]	> 10	> 10		
Fc1ccc(-c2nc3ccc(-c4cccnc4)cc3nc2-c2ccc(F)cc2)cc1 [BC19242]	> 10	0.1 to 1		
COCC[S+]([O-])c1[nH]c(-c2ccccc2)nc1S(=O)(=O)c1ccc(F)cc1 (stereo not drawn) [BC19524]	> 10	> 10		
CC1Oc2c(cc(Cl)cc2S(=O)(=O)Nc2ccc(F)cc2Cl)NC1=O (stereo not drawn) [BC19720]			> 10	< 0.1
CCC1Oc2c(cc(Br)cc2S(=O)(=O)NCc2ccc(F)cc2F)NC1=O (stereo not drawn) [BC19374]			1 to 10	< 0.1
COc1ccc(NS(=O)(=O)c2cc(Cl)cc3c2OC(C)C(=O)N3)cc1Cl (stereo not drawn) [BC19292]			> 10	< 0.1
Cc1ccc(S(=O)(=O)c2nc(-c3ccccc3)oc2S(=O)(=O)C(C)C)cc1 [BC19263]	0.1 to 1	0.1 to 1		
Cn1c(-c2ccccc2)nc(S(=O)(=O)c2ccc(F)cc2)c1[S+](C)[O-] (stereo not drawn) [BC19644]	> 10	> 10		
O=C(O)c1cnc2nc(-c3ccc(F)cc3)c(-c3ccc(F)cc3)nc2c1 [BC19407]	> 10	0.1 to 1		
Oc1ccc2nc(-c3ccc(F)cc3)c(-c3ccc(F)cc3)nc2n1 [BC19448]	> 10	0.1 to 1		
CC(C)CC1Oc2cc(S(=O)(=O)Nc3cccc(F)c3)c(Br)cc2NC1=O (stereo not drawn) [BC19774]			> 10	0.1 to 1
O=C1NCCOc2c1cc(Br)cc2S(=O)(=O)Nc1ccccc1 [BC19553]	> 10	1 to 10		
CN1CCN(C(=O)c2ccc3nc(-c4ccc(F)cc4F)c(-c4ccccc4)nc3c2)CC1 [BC19405]	> 10	0.1 to 1		
CC1C(=O)Nc2ccc(S(=O)(=O)N3CCCC3)cc2N1C(=O)N1CCOCC1 (stereo not drawn) [BC19297]	> 10	1 to 10		
O=S(=O)(c1ccccc1)c1ccn(-c2ccccc2)n1 [BC19205]	> 10	1 to 10		
CCC1Oc2cc(S(=O)(=O)Nc3ccc(C)c(F)c3)c(Br)cc2N(C)C1=O (stereo not drawn) [BC19924]			1 to 10	< 0.1
O=C1COc2cc(S(=O)(=O)Nc3ccc(C(F)(F)F)cc3Cl)c(Br)cc2N1 [BC19390]			> 10	1 to 10
Cc1ccc(NS(=O)(=O)c2cc(Br)cc3c2OCCNC3=O)cc1F [BC19552]	> 10	0.1 to 1		

SMILES	IC50 (TNF release; [1]) [µM]	IC50 (NF-κB; LPS-stimulated) [µM]	IC50 (TNF release; [2]) [µM]	IC50 (NF-κB; [3]) [µM]
CCC1Oc2cc(S(=O)(=O)Nc3cccc(Cl)c3)c(Br)cc2NC1=O (stereo not drawn) [BC19221]			> 10	0.1 to 1
CCc1ccc(NS(=O)(=O)c2cc3c(cc2Cl)NC(=O)C(C)O3)cc1 (stereo not drawn) [BC19702]			> 10	< 0.1
O=S(=O)(c1ccc(F)cc1)c1nc(-c2cccc(F)c2)sc1[S+]([O-])CC1CC1 (stereo not drawn) [BC19597]	> 10	1 to 10		
CCCS(=O)(=O)c1sc(-c2cccc(F)c2)nc1S(=O)(=O)c1ccc(F)cc1 [BC19589]	1 to 10	1 to 10		
CC(C)CC1Oc2cc(S(=O)(=O)Nc3ccc(F)cc3Cl)c(Br)cc2NC1=O (stereo not drawn) [BC19778]			> 10	> 10
O=S(=O)(c1ccc(F)cc1)c1nc(-c2ccc(Cl)cc2)sc1[S+]([O-])C1CCCCC1 (stereo not drawn) [BC19594]	> 10	> 10		
CCC[S+]([O-])c1sc(-c2ccc(Cl)cc2)nc1S(=O)(=O)c1ccc(F)cc1 (stereo not drawn) [BC19535]	1 to 10	1 to 10		
CC1Oc2c(cc(Br)cc2S(=O)(=O)Nc2ccc(F)cc2Cl)NC1=O (stereo not drawn) [BC19289]			> 10	< 0.1
CCS(=O)(=O)c1cc2c(c(S(=O)(=O)Nc3ccc(C#N)cc3)c1)OCC(=O)N2 [BC19548]			> 10	< 0.1
CCC1Oc2cc(S(=O)(=O)NCCc3ccc(OC(F)(F)F)cc3)c(Br)cc2NC1=O (stereo not drawn) [BC19373]			> 10	> 10
Nc1cccc2cc(S(=O)(=O)c3ccccc3)cnc12 [BC19324]			0.1 to 1	> 10
CCS(=O)(=O)c1cc2c(c(S(=O)(=O)Nc3ccc(F)cc3F)c1)OCC(=O)N2 [BC19545]			> 10	< 0.1
NC(=O)c1ccc2nc(-c3ccc(F)cc3)c(-c3cccs3)nc2c1 [BC19187]	> 10	0.1 to 1		
C[S+]([O-])c1[nH]nc(N)c1S(=O)(=O)c1ccccc1 (stereo not drawn) [BC19338]	> 10	> 10		
O=S(=O)(c1cccc(F)c1)c1nc(-c2ccccc2)oc1S(=O)(=O)C1CCCCC1 [BC19328]	0.1 to 1	< 0.1		
CC(C)S(=O)(=O)c1sc(C2CCCCC2)nc1S(=O)(=O)c1ccc(Cl)cc1 [BC19636]	> 10	> 10		
COc1ccc(NS(=O)(=O)c2cc3c(cc2Cl)NC(=O)C(C)O3)cc1Cl (stereo not drawn) [BC19280]			> 10	1 to 10
CCC1Oc2c(cc(Br)cc2S(=O)(=O)Nc2ccc(C)c(F)c2)N(C)C1=O (stereo not drawn) [BC19923]			1 to 10	< 0.1
C[S+]([O-])c1sc(-c2ccccc2F)nc1S(=O)(=O)c1ccc(Cl)cc1 (stereo not drawn) [BC19626]	1 to 10	1 to 10		

SMILES	IC50 (TNF release; [1]) [µM]	IC50 (NF-κB; LPS-stimulated) [µM]	IC50 (TNF release; [2]) [µM]	IC50 (NF-κB; [3]) [µM]
CC(C)[S+]([O-])c1[nH]c(-c2ccccc2)nc1S(=O)(=O)c1ccc(Cl)cc1 (stereo not drawn) [BC19584]	> 10	1 to 10		
Cc1ccc(-c2nc(S(=O)(=O)c3ccc(F)cc3)c(S(C)(=O)=O)o2)cc1 [BC19147]	0.1 to 1	0.1 to 1		
CN(C)CCCNS(=O)(=O)c1ccc2nc(-c3ccc(F)cc3)c(-c3ccc(F)cc3)nc2c1 [BC19562]	1 to 10	0.1 to 1		
CS(=O)(=O)N1CCC(C(=O)Nc2ccc3nc(-c4ccc(F)cc4)c(-c4ccc(F)cc4)nc3c2)CC1 [BC19312]	1 to 10	< 0.1		
CN1CCN(C(=O)c2ccc3nc(-c4cccc(N(C)C)c4)c(-c4cccc(N(C)C)c4)nc3c2)CC1 [BC19498]	> 10	> 10		
CNC(=O)c1ccc2nc(-c3ccc(F)cc3)c(-c3cccs3)nc2c1 [BC19188]	> 10	0.1 to 1		
CCCn1cc(-c2cnc3nc(-c4ccc(F)cc4)c(-c4ccc(F)cc4)nc3c2)nn1 [BC19402]	> 10	< 0.1		
CC1Oc2cc(S(=O)(=O)Nc3ccc(F)cc3)c(Br)cc2N(C)C1=O (stereo not drawn) [BC19910]			> 10	1 to 10
CC1Oc2cc(S(=O)(=O)Nc3ccc(F)c(F)c3)c(Br)cc2N(C)C1=O (stereo not drawn) [BC19786]			> 10	1 to 10
CC1Oc2c(cc(Br)cc2S(=O)(=O)N2CCOCC2)NC1=O (stereo not drawn) [BC19226]			> 10	1 to 10
COc1ccc(NS(=O)(=O)c2cc3c(cc2Br)N(C)C(=O)C(C)O3)cc1 (stereo not drawn) [BC19795]			1 to 10	> 10
Cc1nc2c(S(=O)(=O)c3ccccc3)c([S+](C)[O-])nn2c(C)c1C (stereo not drawn) [BC19340]	> 10	> 10		
O=C(NCc1cccnc1)Nc1ccc2nc(-c3ccc(F)cc3)c(-c3ccc(F)cc3)nc2c1 [BC19571]	1 to 10	0.1 to 1		
CCC1Oc2c(cc(Br)cc2S(=O)(=O)Nc2cccc(F)c2)NC1=O (stereo not drawn) [BC19231]			> 10	< 0.1
CC1C(=O)Nc2ccc(S(=O)(=O)N3CCCC3)cc2N1C (stereo not drawn) [BC19296]	> 10	1 to 10		
CCC1Oc2c(cc(Br)cc2S(=O)(=O)Nc2ccc(F)cc2F)N(C)C1=O (stereo not drawn) [BC19913]			> 10	< 0.1
Cc1ccc(S(=O)(=O)c2c(O)[nH]c3ncccc3c2=O)cc1 [BC19258]			> 10	1 to 10
COCC(=O)N1CCC(C(=O)Cc2ccc3nc(-c4ccc(F)cc4)c(-c4ccc(F)cc4)nc3n2)CC1 [BC19494]	> 10	0.1 to 1		
CCc1cccc(NS(=O)(=O)c2cc3c(cc2Br)NC(=O)C(C)O3)c1 (stereo not drawn) [BC19283]			> 10	0.1 to 1
